Measured values as given in ChEMBL document CHEMBL3232765, “Anti-mycobacterial activity of 1,3-diaryltriazenes” (Eur J Med Chem, 2014).
Active and inactive are the calls of the source. No cut-off for these calls is given here.

System: Mycobacterium tuberculosis
Test: Antimycobacterial activity against multidrug-resistant Mycobacterium tuberculosis LAM-1 at 0.73 uM after 4 to 6 days by BACTEC MGIT 960 assay
Format: functional, organism-based

NNC(=O)c1ccncc1 [ISONIAZID]
Activity: inactive
